{
  "source": "patent US8778982B2",
  "about": "“Synergistic microbicidal compositions” (Rohm and Haas Company, priority 2007, dated 2014)",
  "format_in_all_cases": "cell-based",
  "key": {"[1]": {"system": "Escherichia coli (E. coli—ATCC #8739)", "assay": "Synergy test, microtiter plate high resolution MIC assay, M9GY medium, bacterium", "settings": "for SI / Qb: E. coli 8739 - M9GY (1 day), A = MIT; for Qb: B alone where Qa = 0; for MIC: Escherichia coli, ATCC8739, 24 h", "description": "(§1) One measure of synergism is the industrially accepted method described by Kull, F. C.; Eisman, P. C.; Sylwestrowicz, H. D. and Mayer, R. L., in Applied Microbiology 9:538-541 (1961), using the ratio determined by the formula: Qa/QA+Qb/QB=Synergy Index(“SI”) wherein: • QA=concentration of compound A (first component) in ppm, acting alone, which produced an end point (MIC of Compound A). • Qa=concentration of compound A in ppm, in the mixture, which produced an end point. • QB=concentration of compound B (second component) in ppm, acting alone, which produced an end point (MIC of Compound B). • Qb=concentration of compound B in ppm, in the mixture, which produced an end point.\n(§2) When the sum of Qa/QA and Qb/QB is greater than one, antagonism is indicated. […] The lower the SI, the greater is the synergy shown by that particular mixture. The minimum inhibitory concentration (MIC) of a microbicide is the lowest concentration tested under a specific set of conditions that prevents the growth of the tested microorganisms.\n(§3) Synergy tests were conducted using standard microtiter plate assays with media designed for optimal growth of the test microorganism. Minimal salt medium supplemented with 0.2% glucose and 0.1% yeast extract (M9GY medium) was used for testing bacteria; Potato Dextrose Broth (PDB medium) was used for testing yeast and mold. In this method, a wide range of combinations of microbicides and other personal care raw materials was tested by conducting high resolution MIC assays in the presence of various concentrations of CMIT/MIT, MIT, or BIT. High resolution MICs were determined by adding varying amounts of microbicide to one column of a microtitre plate and doing subsequent […] dilutions using an automated liquid handling system to obtain a series of endpoints ranging from 2 ppm to 10,000 ppm active ingredient.\n(§4) The synergy of the combinations of the present invention was determined against a bacterium, Escherichia coli (E. coli—ATCC #8739), a yeast, Candida albicans (C. albicans—ATCC 10231), and a mold, Aspergillus niger (A. niger—ATCC 16404). The bacteria were used at a concentration of about 5×10^6 bacteria per mL and the yeast and mold at 5×10^5 fungi per mL. These microorganisms are representative of natural contaminants in many consumer and industrial applications. […] (yeast and mold) or 30° C. (bacteria)."}, "[2]": {"system": "Candida albicans (C. albicans—ATCC 10231)", "assay": "Synergy test, microtiter plate high resolution MIC assay, PDB medium, yeast", "settings": "for SI / Qb: C. albicans 10231 - PDB (6 days), A = MIT; for Qb: B alone where Qa = 0; for MIC: Candida albicans", "description": "as §1, §2, §3, §4"}, "[3]": {"system": "Aspergillus niger (A. niger—ATCC 16404)", "assay": "Synergy test, microtiter plate high resolution MIC assay, PDB medium, mold", "settings": "for SI / Qb: A. niger 16404 - PDB (10 days), A = MIT; for Qb: B alone where Qa = 0; for MIC: Aspergillus niger, ATCC16404, 72 h", "description": "as §1, §2, §3, §4"}},
  "note": "Like-named read-outs stand apart in the source and are kept apart here.",
  "data": [
    {"smiles": "CCCCCCCCCC(=O)OCC(O)CO", "note": "(stereo not drawn) [Glyceryl caprate]", "values": [
      {"measurement": "SI (synergy index)", "setting": "[1]; E. coli 8739, M9GY, 1 day", "value": 1.00},
      {"measurement": "Synergy Index (SI) = Qa/QA+Qb/QB", "setting": "[1]; E. coli 8739, M9GY, 1 day", "value": 1.00},
      {"measurement": "SI", "setting": "[1]; B = Glyceryl caprate", "value": 1.00},
      {"measurement": "Qb", "setting": "[1]; B = Glyceryl caprate", "value": 20000, "unit": "ppm"},
      {"measurement": "MIC", "setting": "[1]; E. coli 8739, M9GY, 1 day, 30° C., read-out: MIC of the component acting alone (QA or QB)", "value": 20000, "unit": "µg/mL"},
      {"measurement": "MIC", "setting": "[1]; E. coli 8739, M9GY, 1 day, read-out: MIC of the component acting alone (Qa or Qb with the other component at 0)", "value": 20000, "unit": "µg/mL"},
      {"measurement": "Synergy Index (SI) = Qa/QA+Qb/QB", "setting": "[2]; C. albicans 10231, PDB, 1 day", "value": 1.00},
      {"measurement": "SI (synergy index)", "setting": "[2]; C. albicans 10231, PDB, 6 days", "value": 1.00},
      {"measurement": "SI", "setting": "[2]; B = Glyceryl caprate", "value": 1.00},
      {"measurement": "Qb", "setting": "[2]; B = Glyceryl caprate", "value": 2000, "unit": "ppm"},
      {"measurement": "MIC", "setting": "[2]; ATCC10231, 24 h, C. albicans 10231, PDB, 1 day, 25° C., read-out: MIC of the component acting alone (QA or QB)", "value": 2000, "unit": "µg/mL"},
      {"measurement": "MIC", "setting": "[2]; ATCC10231, 144 h, C. albicans 10231, PDB, 6 days, read-out: MIC of the component acting alone (Qa or Qb with the other component at 0)", "value": 2000, "unit": "µg/mL"},
      {"measurement": "SI (synergy index)", "setting": "[3]; A. niger 16404, PDB, 3 days", "value": 1.00},
      {"measurement": "Synergy Index (SI) = Qa/QA+Qb/QB", "setting": "[3]; A. niger 16404, PDB, 3 days", "value": 1.00},
      {"measurement": "SI", "setting": "[3]; B = Glyceryl caprate", "value": 1.00},
      {"measurement": "Qb", "setting": "[3]; B = Glyceryl caprate", "value": 2000, "unit": "ppm"},
      {"measurement": "MIC", "setting": "[3]; A. niger 16404, PDB, 3 days, 25° C., read-out: MIC of the component acting alone (QA or QB)", "value": 2000, "unit": "µg/mL"},
      {"measurement": "MIC", "setting": "[3]; A. niger 16404, PDB, 3 days, read-out: MIC of the component acting alone (Qa or Qb with the other component at 0)", "value": 2000, "unit": "µg/mL"}
    ]},
    {"smiles": "CCCCCCCCCCCC(=O)N[C@@H](CCCNC(=N)N)C(=O)OCC.Cl", "note": "[Lauric arginate, N-α-lauoryl-L-arginine ethyl ester monohydrochloride]", "values": [
      {"measurement": "MIC of the component acting alone (Qa or Qb with the other component at 0)", "setting": "[1]; E. coli 8739, M9GY, 1 day", "value": 300, "unit": "ppm"},
      {"measurement": "SI (synergy index)", "setting": "[1]; E. coli 8739, M9GY, 1 day", "value": 1.00},
      {"measurement": "Synergy Index (SI) = Qa/QA+Qb/QB", "setting": "[1]; E. coli 8739, M9GY, 1 day", "value": 1.00},
      {"measurement": "MIC of the component acting alone (QA or QB)", "setting": "[1]; E. coli 8739, M9GY, 1 day, 30° C.", "value": 200, "unit": "ppm"},
      {"measurement": "SI", "setting": "[1]; B = Lauric arginate", "value": 1.00},
      {"measurement": "Qb", "setting": "[1]; B = Lauric arginate", "value": 300, "unit": "ppm"},
      {"measurement": "Synergy Index (SI) = Qa/QA+Qb/QB", "setting": "[2]; C. albicans 10231, PDB, 1 day", "value": 1.00},
      {"measurement": "MIC of the component acting alone (QA or QB)", "setting": "[2]; C. albicans 10231, PDB, 1 day, 25° C.", "value": 800, "unit": "ppm"},
      {"measurement": "MIC of the component acting alone (Qa or Qb with the other component at 0)", "setting": "[2]; C. albicans 10231, PDB, 6 days", "value": 200, "unit": "ppm"},
      {"measurement": "SI (synergy index)", "setting": "[2]; C. albicans 10231, PDB, 6 days", "value": 1.00},
      {"measurement": "SI", "setting": "[2]; B = Lauric arginate", "value": 1.00},
      {"measurement": "Qb", "setting": "[2]; B = Lauric arginate", "value": 800, "unit": "ppm"},
      {"measurement": "MIC of the component acting alone (Qa or Qb with the other component at 0)", "setting": "[3]; A. niger 16404, PDB, 3 days", "value": 2000, "unit": "ppm"},
      {"measurement": "SI (synergy index)", "setting": "[3]; A. niger 16404, PDB, 3 days", "value": 1.00},
      {"measurement": "Synergy Index (SI) = Qa/QA+Qb/QB", "setting": "[3]; A. niger 16404, PDB, 4 days", "value": 1.00},
      {"measurement": "MIC of the component acting alone (QA or QB)", "setting": "[3]; A. niger 16404, PDB, 4 days, 25° C.", "value": 2000, "unit": "ppm"},
      {"measurement": "SI", "setting": "[3]; B = Lauric arginate", "value": 1.00},
      {"measurement": "Qb", "setting": "[3]; B = Lauric arginate", "value": 2000, "unit": "ppm"}
    ]}
  ]
}
